For the experiment, the target named is T1, MERTK (cMER) (Homo sapiens, UniProt Q12866).
T1 construct: purchased Thermo Fisher Scientific (Life Technologies) SelectScreen
The experiment can be described thus: SelectScreen Z'LYTE. Type of experiment: biochemical. Summed up: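 Percent values come from Thermo SelectScreen profiling of NU5455, combining activity and binding assays. CSF1R was run in Z'LYTE format at Km app ATP, and CAMK1 in Adapta format with ATP listed at 10.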

As usually defined, the inhibition is how much of the control response was suppressed. Low values mean a response near the control, high ones a response far below the control.

T1 sequence (Q12866 21-999): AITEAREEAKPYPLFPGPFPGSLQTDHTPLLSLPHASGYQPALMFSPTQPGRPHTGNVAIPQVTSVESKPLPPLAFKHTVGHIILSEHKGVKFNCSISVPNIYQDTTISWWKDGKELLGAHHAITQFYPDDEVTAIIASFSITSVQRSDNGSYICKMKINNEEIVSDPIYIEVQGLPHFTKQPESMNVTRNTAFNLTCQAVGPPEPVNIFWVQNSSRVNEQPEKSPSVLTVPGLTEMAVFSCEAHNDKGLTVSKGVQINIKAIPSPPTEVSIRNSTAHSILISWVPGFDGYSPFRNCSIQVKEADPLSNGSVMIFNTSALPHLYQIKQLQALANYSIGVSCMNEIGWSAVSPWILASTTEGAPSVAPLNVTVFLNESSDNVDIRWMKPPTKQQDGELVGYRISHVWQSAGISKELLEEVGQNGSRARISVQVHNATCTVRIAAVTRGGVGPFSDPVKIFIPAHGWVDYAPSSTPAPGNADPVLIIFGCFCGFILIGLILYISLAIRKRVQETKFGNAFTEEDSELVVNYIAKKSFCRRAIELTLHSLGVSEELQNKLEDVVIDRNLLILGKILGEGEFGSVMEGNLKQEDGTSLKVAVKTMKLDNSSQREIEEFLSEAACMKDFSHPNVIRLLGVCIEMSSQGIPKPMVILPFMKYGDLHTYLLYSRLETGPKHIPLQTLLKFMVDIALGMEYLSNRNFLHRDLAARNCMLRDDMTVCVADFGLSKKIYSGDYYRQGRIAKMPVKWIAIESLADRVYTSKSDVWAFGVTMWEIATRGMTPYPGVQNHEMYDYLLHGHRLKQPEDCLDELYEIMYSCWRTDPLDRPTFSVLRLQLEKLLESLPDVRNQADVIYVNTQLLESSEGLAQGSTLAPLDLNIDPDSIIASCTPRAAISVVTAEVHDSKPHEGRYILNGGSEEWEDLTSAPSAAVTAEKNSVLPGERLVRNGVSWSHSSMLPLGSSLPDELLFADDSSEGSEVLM

Compound `CN(C(=O)CN1CCOCC1)c1ccc2sc3c(-c4cccc5c(=O)cc(N6CC7CCC(C6)O7)oc45)cccc3c2c1` [NU5455] registered an inhibition at 1 µM of 8.3%.

The record behind these values is paper PMC6934184, “Selective DNA-PKcs inhibition extends the therapeutic index of localized radiotherapy and chemotherapy” (The Journal of Clinical Investigation, 2019).
